Experimental data published in patent publication US11813340B2, “PSMA targeted radiohalogenated urea-polyaminocarboxylates for cancer radiotherapy” (The Johns Hopkins University, priority 2018, dated 2023).
Read-outs that look alike come from different tables or passages of the source.

Tested on: PSMA+PC3-PIP and PSMA-PC3-flu flank xenografts
Method: Final compounds were purified by HPLC. […] Organs were harvested 1, 4, and 24 h post-injection (n=5 per time point).

[1] = 4-hr, Blocker VK-02-90 1.0 nmole
[2] = 4-hr, Blocker VK-02-90 5.0 nmole
[3] = 4-hr, Blocker YC-I-27 0.5 nmole
[4] = 4-hr, Blocker YC-I-27 1.0 nmole
[5] = 24-hour, Blocker VK-02-90 0.5 nmole
[6] = 24-hour, Blocker VK-02-90 1.0 nmole
[7] = 24-hour, Blocker VK-02-90 5.0 nmole
[8] = 24-hour, Blocker YC-I-27 0.5 nmole
[9] = 24-hour, Blocker YC-I-27 1.0 nmole
[10] = 24-hour, Blocker YC-I-27 5 nmole

## O=C([O-])CN1CCN(CC(=O)[O-])CCN(CC(=O)NCCCCC(=O)N(CCCC[C@H](NC(=O)N[C@@H](CCC(=O)O)C(=O)O)C(=O)O)Cc2ccc([125I])cc2)CCN(CC(=O)[O-])CC1.[Lu+3] [[^125I]VK-02-90-Lu]
[1]
  Biodistribution, PIP tumor: 27.1 ± 3.6 % injected dose/g
  Biodistribution, Salivary glands: 0.1 ± 0.02 % injected dose/g
  Biodistribution, Spleen: 0.2 ± 0.1 % injected dose/g
  Biodistribution, Stomach: 0.1 ± 0.03 % injected dose/g
[2]
  Biodistribution, Blood: 0 % injected dose/g
  Biodistribution, Flu tumor: 0.1 ± 0.01 % injected dose/g
  Biodistribution, Kidneys: 0.9 ± 0.3 % injected dose/g
  Biodistribution, Lacrimal glands: 0.1 ± 0.1 % injected dose/g
  Biodistribution, PIP tumor: 18.8 ± 2.0 % injected dose/g
  Biodistribution, Salivary glands: 0.05 ± 0.02 % injected dose/g
  Biodistribution, Spleen: 0.15 ± 0.08 % injected dose/g
  Biodistribution, Stomach: 0.1 ± 0.04 % injected dose/g
[3]
  Biodistribution, Blood: 0.4 ± 0.06 % injected dose/g
  Biodistribution, Flu tumor: 0.3 ± 0.1 % injected dose/g
  Biodistribution, Kidneys: 0.9 ± 0.1 % injected dose/g
  Biodistribution, Lacrimal glands: 0.2 ± 0.02 % injected dose/g
  Biodistribution, PIP tumor: 24.0 ± 3.2 % injected dose/g
  Biodistribution, Salivary glands: 3.3 ± 0.8 % injected dose/g
  Biodistribution, Spleen: 0.25 ± 0.07 % injected dose/g
  Biodistribution, Stomach: 1.3 ± 0.2 % injected dose/g
[4]
  Biodistribution, Blood: 0.4 ± 0.05 % injected dose/g
  Biodistribution, Flu tumor: 0.3 ± 0.1 % injected dose/g
  Biodistribution, Kidneys: 0.6 ± 0.03 % injected dose/g
  Biodistribution, Lacrimal glands: 0.2 ± 0.03 % injected dose/g
  Biodistribution, PIP tumor: 23.8 ± 1.1 % injected dose/g
  Biodistribution, Salivary glands: 3.2 ± 0.7 % injected dose/g
  Biodistribution, Spleen: 0.2 ± 0.04 % injected dose/g
  Biodistribution, Stomach: 1.2 ± 0.2 % injected dose/g
4-hr, Blocker YC-I-27 5 nmole
  Biodistribution, Blood: 0.4 ± 0.1 % injected dose/g
  Biodistribution, Flu tumor: 0.3 ± 0.1 % injected dose/g
  Biodistribution, Kidneys: 0.7 ± 0.1 % injected dose/g
  Biodistribution, Lacrimal glands: 0.5 ± 0.5 % injected dose/g
  Biodistribution, Salivary glands: 5.0 ± 1.4 % injected dose/g
  Biodistribution, Spleen: 0.3 ± 0.06 % injected dose/g
  Biodistribution, Stomach: 1.6 ± 0.4 % injected dose/g
24-hour, Blocker None
  Biodistribution, Blood: 0 % injected dose/g
  Biodistribution, Flu tumor: 0.05 ± 0.01 % injected dose/g
  Biodistribution, Kidneys: 1.3 ± 0.7 % injected dose/g
  Biodistribution, Lacrimal glands: 0.05 ± 0.04 % injected dose/g
  Biodistribution, PIP tumor: 18.0 ± 6.0 % injected dose/g
  Biodistribution, Salivary glands: 0.2 ± 0.08 % injected dose/g
  Biodistribution, Spleen: 0.1 ± 0.05 % injected dose/g
  Biodistribution, Stomach: 0.1 ± 0.04 % injected dose/g
[5]
  Biodistribution, Blood: 0.1 ± 0.01 % injected dose/g
  Biodistribution, Flu tumor: 0.04 ± 0.01 % injected dose/g
  Biodistribution, Kidneys: 0.5 ± 0.2 % injected dose/g
  Biodistribution, Lacrimal glands: 0.03 ± 0.02 % injected dose/g
  Biodistribution, PIP tumor: 16.3 ± 4.2 % injected dose/g
  Biodistribution, Salivary glands: 0.02 ± 0.01 % injected dose/g
  Biodistribution, Spleen: 0.04 ± 0.01 % injected dose/g
  Biodistribution, Stomach: 0.04 ± 0.04 % injected dose/g
[6]
  Biodistribution, Blood: 0 % injected dose/g
  Biodistribution, Flu tumor: 0.03 ± 0.01 % injected dose/g
  Biodistribution, Kidneys: 0.4 ± 0.1 % injected dose/g
  Biodistribution, Lacrimal glands: 0 % injected dose/g
  Biodistribution, Salivary glands: 0 % injected dose/g
  Biodistribution, Spleen: 0 % injected dose/g
  Biodistribution, Stomach: 0.03 ± 0.02 % injected dose/g
[7]
  Biodistribution, Blood: 0 % injected dose/g
  Biodistribution, Flu tumor: 0.02 ± 0.01 % injected dose/g
  Biodistribution, Kidneys: 0.2 ± 0.2 % injected dose/g
  Biodistribution, Lacrimal glands: 0.01 ± 0.03 % injected dose/g
  Biodistribution, Salivary glands: 0.01 ± 0.01 % injected dose/g
  Biodistribution, Spleen: 0.01 ± 0.03 % injected dose/g
  Biodistribution, Stomach: 0.04 ± 0.03 % injected dose/g
[8]
  Biodistribution, Blood: 0.03 ± 0.03 % injected dose/g
  Biodistribution, Flu tumor: 0.04 ± 0.02 % injected dose/g
  Biodistribution, Kidneys: 0.1 ± 0.05 % injected dose/g
  Biodistribution, Lacrimal glands: 0.03 ± 0.04 % injected dose/g
  Biodistribution, PIP tumor: 13.4 ± 3.8 % injected dose/g
  Biodistribution, Salivary glands: 0.6 ± 0.5 % injected dose/g
  Biodistribution, Spleen: 0.02 ± 0.02 % injected dose/g
  Biodistribution, Stomach: 0.1 ± 0.1 % injected dose/g
[9]
  Biodistribution, Blood: 0.02 ± 0.01 % injected dose/g
  Biodistribution, Flu tumor: 0.03 ± 0.01 % injected dose/g
  Biodistribution, Lacrimal glands: 0.02 ± 0.02 % injected dose/g
  Biodistribution, Salivary glands: 0.4 ± 0.2 % injected dose/g
  Biodistribution, Spleen: 0.04 ± 0.02 % injected dose/g
  Biodistribution, Stomach: 0.08 ± 0.03 % injected dose/g
[10]
  Biodistribution, Blood: 0.02 ± 0.01 % injected dose/g
  Biodistribution, Flu tumor: 0.03 ± 0.01 % injected dose/g
  Biodistribution, Kidneys: 0.05 ± 0.02 % injected dose/g
  Biodistribution, Lacrimal glands: 0.01 ± 0.02 % injected dose/g
  Biodistribution, PIP tumor: 6.6 ± 3.2 % injected dose/g
  Biodistribution, Salivary glands: 0.4 ± 0.1 % injected dose/g
  Biodistribution, Spleen: 0.01 ± 0.03 % injected dose/g
  Biodistribution, Stomach: 0.07 ± 0.1 % injected dose/g
